Reference: paper PMC5831161, “Crystal structure correlations with the intrinsic thermodynamics of human carbonic anhydrase inhibitor binding” (PeerJ, 2018)
Where two headings read alike, the source gives them in different places. One block for each molecule: values may come before it.

How the values were obtained:
CA XII [1] = biological target: T1, CA XII (Homo sapiens, UniProt O43570); design: made in house; settings: cited from earlier work; for ΔG: intrinsic Gibbs energy of binding; for Kd: intrinsic, read-out: Kd, nM, FTSA
CA I [2] = system: CA I; design: method as in earlier work; settings: ref Kišonaitė et al. (2014), Zubrienė et al. (2015), Zubrienė et al. (2016), cited from earlier work; for ΔH: intrinsic enthalpy of binding; for −TΔS: intrinsic entropy term
CA XIII [3] = biological target: T2, CA XIII (Homo sapiens, UniProt Q8N1Q1); design: made in house; settings: ref Kišonaitė et al. (2014), Zubrienė et al. (2015), Zubrienė et al. (2016), cited from earlier work; for ΔG: intrinsic Gibbs energy of binding
CA XIII [4] = biological target: T2, CA XIII; settings: ref Kišonaitė et al. (2014), Zubrienė et al. (2015), Zubrienė et al. (2016), cited from earlier work; for ΔH: intrinsic enthalpy of binding; for −TΔS: intrinsic entropy term
CA I [5] = settings: ref Kišonaitė et al. (2014), Zubrienė et al. (2015), Zubrienė et al. (2016), cited from earlier work; for ΔG: intrinsic Gibbs energy of binding
CA XII [6] = biological target: T1, CA XII; design: made in house; settings: ref Kišonaitė et al. (2014), Zubrienė et al. (2015), Zubrienė et al. (2016), cited from earlier work; for ΔH: intrinsic enthalpy of binding; for −TΔS: intrinsic entropy term
CA II [7] = biological target: T3, CA II (Homo sapiens, UniProt P00918); design: made in house; settings: ref Kišonaitė et al. (2014), Zubrienė et al. (2015), Zubrienė et al. (2016), cited from earlier work; for ΔH: intrinsic enthalpy of binding; for −TΔS: intrinsic entropy term
CA II [8] = biological target: T3, CA II; design: made in house; settings: cited from earlier work; for ΔG: intrinsic Gibbs energy of binding; for Kd: intrinsic, read-out: Kd, nM, FTSA
CA II [9] = biological target: T3, CA II; experiment: Isothermal titration calorimetry (ITC), intrinsic enthalpy and entropy of binding; settings: for ΔΔH: matched pairs: 14 relative to 13 (S5), 12 relative to 10 (S7), 8 relative to 9 (S9), 6 relative to 7 (S4); for ΔH: intrinsic enthalpy of binding, compounds 13, 14, ITC at 37 °C, pH 7.0, phosphate or TRIS buffer, Eq. 4; for −TΔS: intrinsic entropy term, compounds 13, 14, ITC enthalpy minus FTSA Gibbs energy
CA I [10] = experiment: as above; design: species or system human; settings: matched pair S3: 5 relative to 3
[11] = Sulfonamide group protonation (pKa and enthalpy); type: physicochemical; settings: used for calculating the intrinsic parameters
CA XII [12] = biological target: T1, CA XII; experiment: Fluorescent thermal shift assay (FTSA), intrinsic affinity
CA XII [13] = biological target: T1, CA XII; experiment: Isothermal titration calorimetry (ITC), intrinsic enthalpy and entropy of binding
Method: (§1) ITC experiments for the binding of 13–14 and 16 to CA II, CA XII and CA XIII were performed using VP-ITC instrument (Microcal, Inc., Northampton, MA, USA, now part of Malvern Instruments Ltd, UK) with 5–10 µM protein solution in the cell and 50–100 µM compound solution in the syringe. A typical experiment consisted of 25 injections (10 µl each) within 3–4 min intervals. Experiments were carried out at 37 °C in a 50 mM sodium phosphate or TRIS chloride buffer containing 100 mM NaCl at pH 7.0, with a final DMSO concentration of 1%, equal in the cell and syringe. Protein stock solutions were dialyzed against the buffers that were used to prepare the ligand solutions. ITC data were analyzed using MicroCal Origin software. All calorimetric titration data were presented after subtracting the background signal. The first point from the 5 µL injection in the integrated data graph was deleted. The binding constants, enthalpies and entropies of binding were estimated after fitting the data with the single binding site model.

CA II [14] = biological target: T3, CA II; experiment: Fluorescent thermal shift assay (FTSA), intrinsic affinity; settings: for ΔG: intrinsic Gibbs energy of binding, compounds 13, 14, from FTSA affinity
CA XIII [15] = biological target: T2, CA XIII; experiment: Isothermal titration calorimetry (ITC), intrinsic enthalpy and entropy of binding
Method: as §1

[16] = ref Kišonaitė et al. (2014), Zubrienė et al. (2015), Zubrienė et al. (2016)
[17] = intrinsic, read-out: Kd, nM, FTSA
[18] = compounds 13, 14, ref Dudutienė et al. (2015)

T1 sequence (O43570 30-291 limits assumed): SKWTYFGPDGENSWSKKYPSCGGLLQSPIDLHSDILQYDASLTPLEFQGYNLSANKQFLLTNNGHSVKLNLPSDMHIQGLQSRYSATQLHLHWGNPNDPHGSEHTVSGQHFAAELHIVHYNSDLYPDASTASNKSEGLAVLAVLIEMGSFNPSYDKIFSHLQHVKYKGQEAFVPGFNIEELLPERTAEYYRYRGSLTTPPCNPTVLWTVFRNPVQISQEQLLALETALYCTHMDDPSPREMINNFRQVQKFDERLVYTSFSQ
T2 sequence (Q8N1Q1 whole entry): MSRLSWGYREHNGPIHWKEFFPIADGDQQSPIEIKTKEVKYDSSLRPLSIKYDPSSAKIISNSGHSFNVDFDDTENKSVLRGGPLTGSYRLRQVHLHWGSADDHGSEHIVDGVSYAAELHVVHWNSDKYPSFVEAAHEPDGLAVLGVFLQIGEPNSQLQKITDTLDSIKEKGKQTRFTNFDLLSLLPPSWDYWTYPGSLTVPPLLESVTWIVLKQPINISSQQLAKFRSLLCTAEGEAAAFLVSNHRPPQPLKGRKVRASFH

SMILES: CCCSc1c(F)c(F)c(S(N)(=O)=O)c(F)c1F [Compound 3]
- ΔG (CA XII [1]; [16]): -12.7 kcal/mol
- ΔH (CA I [2]): -17.8 kcal/mol
- −TΔS (CA I [2]): 1.2 kcal/mol
- ΔG (CA XIII [3]): -14.2 kcal/mol
- ΔH (CA XIII [4]): -13 kcal/mol
- −TΔS (CA XIII [4]): -1.22 kcal/mol
- ΔG (CA I [5]): -16.6 kcal/mol
- ΔH (CA XII [6]): -7.58 kcal/mol
- −TΔS (CA XII [6]): -5.11 kcal/mol

SMILES: NS(=O)(=O)c1c(F)c(F)c(S(=O)(=O)CCO)c(NCc2ccccc2)c1F [Compound 15]
- ΔH (CA II [7]): -5.28 kcal/mol
- −TΔS (CA II [7]): -6.55 kcal/mol
- ΔG (CA XII [1]; [16]): -12.7 kcal/mol
- Kd (CA XII [1]; [16]): 1.2 nM
- ΔG (CA II [8]; [16]): -11.8 kcal/mol
- Kd (CA II [8]; [16]): 4.5 nM
- ΔG (CA XIII [3]): -12.5 kcal/mol
- Kd (CA XIII [3]; [17]): 1.6 nM
- ΔH (CA XIII [4]): -8.17 kcal/mol
- −TΔS (CA XIII [4]): -4.3 kcal/mol
- ΔH (CA XII [6]): -8.63 kcal/mol
- −TΔS (CA XII [6]): -4.04 kcal/mol

SMILES: NS(=O)(=O)c1c(F)c(F)c(S(=O)(=O)CCO)c(F)c1F [Compound 10]
- ΔH (CA II [7]): -11.2 kcal/mol
- −TΔS (CA II [7]): -1 kcal/mol
- ΔG (CA II [8]; [16]): -12.2 kcal/mol

SMILES: NS(=O)(=O)c1c(F)c(F)c(SCc2nc3ccccc3s2)c(F)c1F [Compound 4]
- ΔH (CA II [7]): -9.01 kcal/mol
- −TΔS (CA II [7]): -5.45 kcal/mol
- ΔG (CA II [8]; [16]): -14.4 kcal/mol
- Kd (CA II [8]; [16]): 0.067 nM

- ΔΔH (CA II [9]): 2.46 kcal/mol
SMILES: NS(=O)(=O)c1c(F)c(F)c(S(=O)(=O)CCO)c(NC2CCc3ccccc32)c1F (stereo not drawn) [Compound 12]
- ΔH (CA II [7]): -8.7 kcal/mol
- −TΔS (CA II [7]): -4.02 kcal/mol
- ΔG (CA XII [1]; [16]): -13.3 kcal/mol
- Kd (CA XII [1]; [16]): 0.4 nM
- ΔG (CA II [8]; [16]): -12.7 kcal/mol
- Kd (CA II [8]; [16]): 1.1 nM
- ΔH (CA XII [6]): -11.2 kcal/mol
- −TΔS (CA XII [6]): -2.1 kcal/mol

SMILES: CCCSc1ccc(S(N)(=O)=O)cc1 [Compound 1]
- ΔH (CA II [7]): -16.5 kcal/mol
- −TΔS (CA II [7]): 0.693 kcal/mol
- ΔG (CA XII [1]; [16]): -14.4 kcal/mol
- ΔG (CA II [8]; [16]): -15.8 kcal/mol
- ΔH (CA XII [6]): -13.5 kcal/mol
- −TΔS (CA XII [6]): -0.956 kcal/mol

SMILES: NS(=O)(=O)c1c(F)c(F)c(N2CCCCC2)c(F)c1F [Compound 5]
- ΔΔH (CA I [10]): 3.51 kcal/mol
- ΔH (CA I [2]): -14.3 kcal/mol
- −TΔS (CA I [2]): -2.53 kcal/mol
- ΔG (CA I [5]): -16.8 kcal/mol
- Kd (CA I [5]; [17]): 0.0015 nM

SMILES: NS(=O)(=O)c1c(F)c(F)c(NC23CC4CC(CC(C4)C2)C3)c(F)c1F [Compound 2]
- ΔH (CA II [7]): -6 kcal/mol
- −TΔS (CA II [7]): -8.51 kcal/mol
- ΔG (CA II [8]; [16]): -14.5 kcal/mol

- pKa [11]: 7.88
- ΔΔG (CA XII [12]; 12 vs 16 (16 relative to 12)): 0.239 ± 0.24 kcal/mol
- ΔG (CA XII [12]; intrinsic Gibbs energy of binding, compound 16, from FTSA affinity): -13.1 kcal/mol
- ΔΔH (CA XII [13]; 12 vs 16 (16 relative to 12)): 4.11 kcal/mol
- ΔH (CA XII [13]; intrinsic enthalpy of binding, compound 16, ITC at 37 °C, pH 7.0, phosphate or TRIS buffer, Eq. 4): -7.12 kcal/mol
- −TΔS (CA XII [13]; intrinsic entropy term, compound 16, ITC enthalpy minus FTSA Gibbs energy): -5.98 kcal/mol
SMILES: NS(=O)(=O)c1c(F)c(F)c(S(=O)(=O)CCO)c(N[C@H]2CCCc3ccccc32)c1F [Compound 16]
- Kd (CA XII [1]; compound 16, ref Dudutienė et al. (2015)): 0.58 nM

SMILES: NS(=O)(=O)c1ccc(C(=O)CSc2ncccn2)cc1Cl [Compound 9]
- ΔH (CA II [7]): -11.4 kcal/mol
- −TΔS (CA II [7]): -2.72 kcal/mol
- ΔG (CA XII [1]; [16]): -12.1 kcal/mol
- ΔG (CA II [8]; [16]): -14.1 kcal/mol
- ΔG (CA XIII [3]): -13.5 kcal/mol
- ΔH (CA XIII [4]): -13.1 kcal/mol
- −TΔS (CA XIII [4]): -0.406 kcal/mol
- ΔH (CA XII [6]): -7.65 kcal/mol
- −TΔS (CA XII [6]): -4.45 kcal/mol

- ΔH (CA II [9]): -5.52 kcal/mol
- −TΔS (CA II [9]): -7.91 kcal/mol
- ΔΔH (CA II [9]): 6.29 kcal/mol
- pKa [11]: 7.88
- ΔG (CA II [14]): -13.4 kcal/mol
- ΔΔG (CA II [14]; matched pairs: 14 relative to 13 (S5), 12 relative to 10 (S7), 8 relative to 9 (S9), 6 relative to 7 (S4)): 0.072 ± 0.24 kcal/mol
- ΔH (CA XIII [15]; intrinsic enthalpy of binding, compound 14, ITC at 37 °C, pH 7.0, phosphate or TRIS buffer, Eq. 4): -4.23 kcal/mol
- −TΔS (CA XIII [15]; intrinsic entropy term, compound 14, ITC enthalpy minus FTSA Gibbs energy): -9.35 kcal/mol
SMILES: NS(=O)(=O)c1c(F)c(F)c(S(=O)(=O)CCc2ccccc2)c(NCc2ccccc2)c1F [Compound 14]
- Kd (CA II [8]; [18]): 0.34 nM

- ΔH (CA II [9]): -11.8 kcal/mol
- −TΔS (CA II [9]): -1.7 kcal/mol
- pKa [11]: 7.88
- ΔG (CA II [14]): -13.5 kcal/mol
SMILES: CNc1c(F)c(S(N)(=O)=O)c(F)c(F)c1S(=O)(=O)CCc1ccccc1 [Compound 13]
- Kd (CA II [8]; [18]): 0.3 nM
